Laboratory results reported in article PMC12207590, “Substrate Specificity of the Organic Cation Transporters MATE1 and MATE2K and Functional Overlap with OCT1 and OCT2” (Journal of Medicinal Chemistry, 2025).
Read-outs that look alike come from different tables or passages of the source.

Assays:
MATE1 = target: T1, MATE1 (Homo sapiens, UniProt Q96FL8); assay: Uptake ratio in MATE1-overexpressing HEK293 cells vs empty vector (2.5 μM, 1 min, HPLC-MS/MS); assay type: cell-based
T1 sequence (Q96FL8 1-570): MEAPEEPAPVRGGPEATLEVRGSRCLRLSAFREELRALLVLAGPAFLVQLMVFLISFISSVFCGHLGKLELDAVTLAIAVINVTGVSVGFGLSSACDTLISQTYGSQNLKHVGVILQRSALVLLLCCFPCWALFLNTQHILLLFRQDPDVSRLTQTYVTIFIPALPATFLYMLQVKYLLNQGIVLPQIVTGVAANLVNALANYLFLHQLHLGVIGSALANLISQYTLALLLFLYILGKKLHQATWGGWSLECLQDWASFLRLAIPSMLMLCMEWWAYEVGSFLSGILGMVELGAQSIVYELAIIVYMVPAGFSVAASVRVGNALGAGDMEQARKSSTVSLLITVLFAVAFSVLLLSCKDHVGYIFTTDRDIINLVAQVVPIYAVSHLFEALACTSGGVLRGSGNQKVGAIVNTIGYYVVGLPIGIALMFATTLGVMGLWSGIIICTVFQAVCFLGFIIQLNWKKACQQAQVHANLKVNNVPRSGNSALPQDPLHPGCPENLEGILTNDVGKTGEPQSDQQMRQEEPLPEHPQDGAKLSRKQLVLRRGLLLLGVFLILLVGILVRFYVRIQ

MATE2K = MATE2K (Homo sapiens, UniProt Q86VL8); assay: Uptake ratio in MATE2K-overexpressing HEK293 cells vs empty vector (2.5 μM, 1 min, HPLC-MS/MS); assay type: cell-based
Chain of MATE2K (Q86VL8 1-566 isoform Q86VL8-3): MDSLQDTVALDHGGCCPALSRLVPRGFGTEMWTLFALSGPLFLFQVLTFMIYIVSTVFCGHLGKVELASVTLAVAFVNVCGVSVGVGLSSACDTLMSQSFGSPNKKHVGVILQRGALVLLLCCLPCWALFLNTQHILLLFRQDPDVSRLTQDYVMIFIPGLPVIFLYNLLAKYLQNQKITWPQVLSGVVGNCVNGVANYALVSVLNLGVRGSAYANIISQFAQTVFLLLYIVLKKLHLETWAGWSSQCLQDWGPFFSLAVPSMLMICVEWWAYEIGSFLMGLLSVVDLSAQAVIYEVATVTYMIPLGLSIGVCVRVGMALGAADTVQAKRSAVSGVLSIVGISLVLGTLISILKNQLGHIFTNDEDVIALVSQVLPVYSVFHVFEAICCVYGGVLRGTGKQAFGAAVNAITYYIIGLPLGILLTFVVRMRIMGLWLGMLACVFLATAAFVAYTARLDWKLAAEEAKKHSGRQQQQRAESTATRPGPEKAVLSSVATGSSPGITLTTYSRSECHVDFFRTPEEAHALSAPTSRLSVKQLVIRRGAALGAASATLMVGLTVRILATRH

[1] = fold uptake over empty vector, 2.5 μM, 1 min
[2] = mean ratio of uptake in MATE1-overexpressing HEK293 cells vs empty vector, 2.5 μM, 1 min
[3] = mean ratio of uptake in MATE2K-overexpressing HEK293 cells vs empty vector, 2.5 μM, 1 min

Row | Compound | MATE1 ratio (MATE1; [1]) | MATE1 (uptake ratio) (MATE1; [2]) | MATE2K ratio (MATE2K; [1]) | MATE2 (uptake ratio) (MATE2K; [3]) | MATE1 (uptake ratio) (MATE1) | MATE1 ratio (MATE1) | MATE2 (uptake ratio) (MATE2K) | MATE2K ratio (MATE2K) | MATE1 ratio in this study (MATE1; Table S1, 2.5 μM, 1 min) | MATE2K ratio in this study (MATE2K; Table S1, 2.5 μM, 1 min)
1 | O=C(O[C@H]1C[N+]2(CCCOc3ccccc3)CCC1CC2)C(O)(c1cccs1)c1cccs1 [Aclidinium] | 4.73 | 4.73 | 1.17 | 1.17 |  |  |  |  |  | 
2 | CCN1C[C@]2(COC)[C@H](O)C[C@H](OC)[C@@]34[C@@H]5C[C@@]6(O)[C@H](OC(=O)c7ccccc7)[C@@H]5[C@@](OC(C)=O)([C@@H]([C@H](OC)[C@H]23)[C@@H]14)[C@@H](O)[C@@H]6OC [Aconitine] |  |  |  |  | 1.13 | 1.13 | 1.32 | 1.32 |  | 
3 | NCCCCN=C(N)N [Agmatine] | 1.08 | 1.08 | 1.05 | 1.05 |  |  |  |  | 1.08 | 1.05
4 | Oc1ncnc2[nH]ncc12 [Allopurinol] | 1.08 | 1.08 | 0.85 | 0.85 |  |  |  |  |  | 
5 | CN(C)CCc1c[nH]c2ccc(CS(=O)(=O)N3CCCC3)cc12 [Almotriptan] | 4.40 | 4.4 | 2.36 | 2.36 |  |  |  |  |  | 
6 | CC(N)[C@H](O)c1ccc(O)c(O)c1 (stereo partly drawn) [Alpha-methylnorepinephrine (-), Alpha-methylnorepinephrine] |  |  |  |  | 1.85 | 1.85 | 0.72 | 0.72 |  | 
7 | NC12CC3CC(CC(C3)C1)C2 [Amantadine] |  |  |  |  | 1.42 | 1.42 | 1.48 | 1.48 |  | 
8 | Nc1c(Br)cc(Br)cc1CN[C@H]1CC[C@H](O)CC1 [Ambroxol] | 1.00 | 1 | 1.32 | 1.32 |  |  |  |  |  | 
9 | CCN1CCCC1CNC(=O)c1cc(S(=O)(=O)CC)c(N)cc1OC [Amisulpride (R), Amisulpride] | 8.46 | 8.46 | 7.40 | 7.4 |  |  |  |  |  | 
10 | CCN1CCCC1CNC(=O)c1cc(S(=O)(=O)CC)c(N)cc1OC [Amisulpride (S), Amisulpride] | 13.70 | 13.7 | 7.93 | 7.93 |  |  |  |  |  | 
11 | Clc1ccc2c(c1)C(N1CCNCC1)=Nc1ccccc1O2 [Amoxapine] | 1.32 | 1.32 | 1.33 | 1.33 |  |  |  |  |  | 
12 | CC1(C)S[C@@H]2[C@H](NC(=O)[C@H](N)c3ccc(O)cc3)C(=O)N2[C@H]1C(=O)O [Amoxicillin] | 1.82 | 1.82 | 0.67 | 0.67 |  |  |  |  |  | 
13 | COc1ccc(-n2nc(C(N)=O)c3c2C(=O)N(c2ccc(N4CCCCC4=O)cc2)CC3)cc1 [Apixaban] | 1.24 | 1.24 | 1.15 | 1.15 |  |  |  |  |  | 
14 | CN1CCc2cccc3c2[C@H]1Cc1ccc(O)c(O)c1-3 [Apomorphine] | 1.05 | 1.05 | 1.02 | 1.02 |  |  |  |  |  | 
